# Biological target: T1, Cdk5 (Mus musculus, UniProt P49615)
# T1 construct: from tissue; host or cells: striatum of wild-type C57BL/6 mice (acute slices, or lysates after I.V. dosing)
# Assay: In vivo Cdk5 inhibition after I.V. injection, immunoblot of striatal phospho-Ser549 synapsin I
# Details: for phospho-Ser549 synapsin I levels in the striatum: 50 mg/kg I.V.
# Method: The wild-type group housed male C57BL/6 mice 10–12 weeks of age were used for all in vivo, ex vivo, and behavioral studies. This age range was selected to be consistent with previous studies of conditional Cdk5 knockout mice ([Plattner et al., 2015]). 25–106 was administered in a 20-fold dose range intravenously (I.V.) at 10, 50, 100, and 200 mg/kg for pharmacokinetic studies. This delivery mode was used as I.V. injections to avoid first-pass drug metabolism observed using other injection methods ([Pond and Tozer, 1984]). […] All animal experiments were performed under approved protocols by the University of Alabama at Birmingham (UAB) Institutional Animal Care and Use Committees and in accordance with the guidelines of the Animal Welfare Act and the Guide for the Care and Use of Laboratory Animals.
# Immunoblotting was performed as previously described ([Umfress et al., 2021]). Mouse brains were rapidly dissected in an ice-cold solution of 50 mM NaF/PBS. The regions of interest were further dissected out and rapidly snap-frozen in dry ice. The frozen tissue was homogenized in boiling lysis buffer (1% SDS, 50 mM NaF) and sonicated with several three to four pulses at 40 dB. The samples were subsequently denatured at 90°C for 5 min. Protein concentration was determined by the BCA assay, and homogenates were diluted in 4x sample buffer, separated by SDS-PAGE, and transferred to 0.45-µm nitrocellulose membranes, blocked with 5% milk solution (1 h), and probed with primary antibodies (overnight). The following antibodies were used in the study: phospho-Ser549 synapsin I (Phosphosolutions), total synapsin I (Phosphosolutions), actin (Invitrogen), phospho-Ser1116 (in-house) ([Plattner et al., 2014]), and total NR2B (Phosphosolutions), phospho-Thr75, and total DARPP-32 (Cell Signaling Technology). Visualization was performed using the Licor CLX membrane scanner and Licor secondary antibodies.
# Each of the four compounds tested in brain slices was further screened for their ability to penetrate the blood–brain barrier (BBB) and inhibit Cdk5-dependent activity in vivo. For these studies, cohorts of mice were treated with each compound via I.V. injection (50 mg/kg), and brain striatal lysates from various time points were subjected to quantitative immunoblot analysis for phosho-Ser549 Synapsin I levels. Three compounds, 20–107, 20–132, and 20–143, had no effect on Cdk5 activity compared to that of vehicle alone (data not shown). […] Moreover, this effect persisted even 24 h after dosing.
# T1 sequence (P49615 whole entry): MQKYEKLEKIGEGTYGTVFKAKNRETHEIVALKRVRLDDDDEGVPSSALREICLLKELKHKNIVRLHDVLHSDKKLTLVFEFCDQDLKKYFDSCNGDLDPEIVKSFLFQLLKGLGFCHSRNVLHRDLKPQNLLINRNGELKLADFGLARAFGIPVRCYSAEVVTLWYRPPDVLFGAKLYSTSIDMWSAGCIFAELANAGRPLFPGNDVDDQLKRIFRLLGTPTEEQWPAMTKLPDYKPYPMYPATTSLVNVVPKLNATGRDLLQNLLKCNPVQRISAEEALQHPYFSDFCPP
# T1 sequence (P61809 2-307 partner limits assumed): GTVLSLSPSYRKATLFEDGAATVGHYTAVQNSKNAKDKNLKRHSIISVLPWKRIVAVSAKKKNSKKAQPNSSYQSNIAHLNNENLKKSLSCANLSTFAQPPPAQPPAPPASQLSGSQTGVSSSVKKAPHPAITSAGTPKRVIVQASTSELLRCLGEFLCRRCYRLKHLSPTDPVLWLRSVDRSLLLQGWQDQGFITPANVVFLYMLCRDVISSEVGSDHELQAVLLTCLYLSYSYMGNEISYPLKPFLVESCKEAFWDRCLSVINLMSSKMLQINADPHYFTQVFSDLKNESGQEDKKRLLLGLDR
smiles,measurement,setting,value
"COc1cc(CC(=O)Nc2cc(C3CCC3)[nH]n2)cc(OC)c1OC [25–106, N-(5-cyclobutyl-1H-pyrazol-3-yl)-2-(3,4,5-trimethoxyphenyl)acetamide]",phospho-Ser549 synapsin I levels in the striatum,2 h after injection,significantly reduced
same,phospho-Ser549 synapsin I levels in the striatum,24 h after dosing,persisted
same,Cdk5-dependent phosphorylation in brain,1 h post injection,remained unchanged
same,"striatal phospho-Ser549 synapsin I levels, dose-response","24 h post injection, 10, 50, 100 and 200 mg/kg I.V., approximately equal efficacy",significant reduction

# Reference: article PMC9134315, “Systemic Administration of a Brain Permeable Cdk5 Inhibitor Alters Neurobehavior” (Frontiers in Pharmacology, 2022)
